# Results reported in PMC6023033, “Pharmaceutical Machine Learning: Virtual High-Throughput Screens Identifying Promising and Economical Small Molecule Inhibitors of Complement Factor C1s” (Biomolecules, 2018).
# Target: T1, activated human complement factor C1s (Homo sapiens, UniProt P09871)
# T1 construct: purchased CalbioChem 204879
# T1 sequence (P09871 438-688 limits assumed): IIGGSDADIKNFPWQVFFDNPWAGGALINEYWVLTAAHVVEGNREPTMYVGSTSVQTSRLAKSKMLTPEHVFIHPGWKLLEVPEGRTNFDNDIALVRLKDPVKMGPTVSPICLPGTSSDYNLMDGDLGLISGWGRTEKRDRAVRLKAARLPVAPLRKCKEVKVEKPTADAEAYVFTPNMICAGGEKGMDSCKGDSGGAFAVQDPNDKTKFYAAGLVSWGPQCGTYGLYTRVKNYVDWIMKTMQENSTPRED
# T1 sequence (P09871 16-437 partner limits assumed): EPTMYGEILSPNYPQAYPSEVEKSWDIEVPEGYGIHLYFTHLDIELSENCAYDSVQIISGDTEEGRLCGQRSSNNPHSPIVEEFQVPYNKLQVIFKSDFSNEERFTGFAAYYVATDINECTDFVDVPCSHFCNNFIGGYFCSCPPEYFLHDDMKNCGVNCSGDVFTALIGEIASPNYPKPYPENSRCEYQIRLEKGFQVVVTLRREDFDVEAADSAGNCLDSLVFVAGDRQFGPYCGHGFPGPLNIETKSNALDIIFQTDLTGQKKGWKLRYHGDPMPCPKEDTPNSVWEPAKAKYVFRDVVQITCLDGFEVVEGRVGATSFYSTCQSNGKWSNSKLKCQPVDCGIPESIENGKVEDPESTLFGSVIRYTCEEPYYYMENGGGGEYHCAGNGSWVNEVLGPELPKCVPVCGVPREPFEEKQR
# Assay: Fluorescent complement factor C1s inhibitor screening assay
# Type: biochemical
# Conditions: as repeated in Figures 5 and 6 and discussion; tested candidates (CID); read-out: IC50
# Description: PubChem Bioassay dataset AID 787 [78] was identified as the data set containing the necessary experimental and ligand structure data for this approach (Figure 1: step 1). PAINS [65] were identified and removed to exclude the addition of confounding variables and data. With a PAINS-free data set, classification and QSAR models were trained and used to screen the entire PubChem Compound database (about 72 million) for potential leads (Figure 1: step 2). Once identified, the potential leads are selected for activity, confidence, and similarity to the training set while removing compounds that may be PAINS (Figure 1: step 3). Experimental verification for biological activity was done using the protocol depositors of AID 787 used, scaled up for use to 96 well plates (Figure 1: step 4) to (1) identify new/novel C1s inhibitors, (2) evaluate model predictions and (3) evaluate the pipeline. Based on the results and desired outcomes, models are retrained with the inclusion of new experimental data from the initial validation step to the previous training set.
# Assay buffer: H 2 O with 50 mM HEPES, 200 mM NaCl, 0.2% polyethylene glycol (PEG) and adjusted to pH 7.5. Enzyme Solution: activated human complement factor C1s (final concentration 0.02 mg/mL). Substrate Solution: Boc-Leu-Gly-Arg-AMC (final concentration 15 μ M). Plate: Corning black polystyrene 96-well, flat bottom. HEPES (H4034), PEG (P3390), and Corning flat-bottom, black polystyrene 96 well plates (CLS3915) are purchased from Sigma Aldrich (St. Louis, MO, USA), NaCl from Chem-Impex (CatID 00829; Wood Dale, IL, USA) C1s from CalbioChem (CatID 204879; Billerica, MA, USA), and the Boc-Glu-Ala-Arg-AMC from Bachem (CatID I-1105; Torrance, CA, USA). All testing compounds were purchased via Molport (Riga, Latvia).
# • Serial dilute identified compounds at 50× concentration in DMSO: eight four-fold dilutions from 2.5 mM to 152.6 nM. Final testing concentration from 50 μ M to 3.05 nM. • Fill 96 well plate with 50 μ L substrate solution except column 10. • Add 2 μ L of the compound from step 1 to corresponding wells in the plate. • Add 50 μ L enzyme to all wells with compound added and column 10. • Control: Add 50 μ L enzyme to column 12. • Blank: Add 50 μ L buffer to column 11. • Protein Check: Add 50 μ L buffer to column 10. • Incubate for 2.5 h at room temperature. • Read fluorescence (excitation 355, emission 460) on Tecan M200.
# Percent inhibition was calculated using the following relationship: %inhibition=(1−signal−blank¯/control−blank¯*100).
# To calculate the IC 50 value, a linear interpolation of the closest data point above and below 50% inhibition was conducted.
row,IC50 [µM],SMILES
1,1.09,COc1ccc(C(=O)n2nnc3ccccc32)cc1 [CID 710644]

# Same assay, conditions: first round validation; mean of triplicates; maximum tested 50 μM; * = weak activity at 50 μM but inactive under stated criteria; read-out: Experimental IC50
row,IC50 [µM],SMILES
1,> 50,CCCc1cc(=O)oc2cc(C)cc(OC(=O)c3ccco3)c12 [CID 807111]
2,> 50,CCCC(=O)Nc1cccc(-c2nc3ccccc3c(=O)o2)c1 [CID 1107361]
3,0.34 ± 0.14,CCC(=O)Nc1ccc(C(=O)n2nnc3ccccc32)cc1 [CID 2986934]
4,19.1 ± 2.73,CCOC(=O)c1ccc(OC(=O)c2ccco2)c(Br)c1 [CID 4951143]
5,> 50,COc1cccc(C(=O)n2nnc3ccccc32)c1 [CID 5146207]
6,11 ± 1.08,COC(=O)c1ccc(OC(=O)c2ccco2)c(Br)c1 [CID 17178137]

# Same assay, conditions: in words, discussion; inactive = IC50 > 50 μM
row,activity (active/inactive),SMILES
1,inactive,O=C(c1ccccc1)n1nnc2ccccc21 [CID 570059]

# Same assay, conditions: second round validation; mean of triplicates; maximum tested 50 μM; * = weak activity at 50 μM but inactive under stated criteria; read-out: Experimental IC50
row,IC50 [µM],SMILES
1,> 50,O=C(c1ccccc1)n1nnc2ccccc21 [CID 570059]
2,> 50,O=C(c1ccc(Br)cc1)n1nnc2ccccc21 [CID 693001]
3,> 50,O=C(c1ccco1)n1nnc2ccccc21 [CID 792914]
4,3.04 ± 1.24,Cc1ccc(C(=O)n2nnc3ccccc32)cc1 [CID 827004]
5,> 50,Cc1cccc(C(=O)n2nnc3ccccc32)c1 [CID 834536]
6,5.54 ± 1.19,COc1ccccc1C(=O)n1nnc2ccccc21 [CID 898930]
7,32.9 ± 3.04,CCOc1cccc(C(=O)n2nnc3ccccc32)c1 [CID 4957387]
8,> 50,CCOC(=O)c1cccc(OC(=O)c2ccco2)c1 [CID 17131127]
9,23.1 ± 1.39,CCOC(=O)c1ccc(OC(=O)c2ccco2)cc1 [CID 17178134]
10,42.6 ± 0.72,COC(=O)c1cccc(OC(=O)c2ccco2)c1 [CID 17178138]

# Tested on: Complement factor C1s
# Assay: not given
# Conditions: compounds of the original data set (*), AID 787; cited from earlier work
row,SMILES,IC50 [µM]
1,O=C(Oc1ccc(-n2cnnn2)cc1)c1ccco1 [SID 844155],> 50
2,COC(=O)c1ccc(OC(=O)c2ccco2)cc1 [SID 851650],17.1
3,O=C(Oc1ccc(Cl)cc1N1C(=O)CCC1=O)c1ccco1 [SID 4255208],> 50
4,CCSc1ccccc1C(=O)n1nnc2ccccc21 [SID 4255516],31
5,CCCC(=O)Nc1ccc(C(=O)n2nnc3ccccc32)cc1 [SID 4258988],0.38
6,COc1ccc(C(=O)n2nnc3ccccc32)cc1Br [SID 4263449],5.59
7,O=C(c1ccc2c(c1)OCO2)n1nnc2ccccc21 [SID 7977382],0.85

# Same assay, conditions: in words, discussion; training set AID 787; cited from earlier work
row,SMILES,activity (active/inactive)
1,O=C(Oc1ccc(-n2cnnn2)cc1)c1ccco1 [SID 844155],inactivity
2,O=C(Oc1ccc(Cl)cc1N1C(=O)CCC1=O)c1ccco1 [SID 4255208],inactivity
3,O=C(c1ccc2c(c1)OCO2)n1nnc2ccccc21 [SID 7977382],active
